In publication PMC7481290, “Halogenation as a tool to tune antimicrobial activity of peptoids” (Scientific Reports, 2020):
Converted amounts (≈) assume the structure as drawn. Non-standard residues stand in square brackets, D forms with d. Residues, ends and D or L forms follow the SMILES beside them. Nspe = C[C@H](NCC(=O)O)c1ccccc1; Nlys = NCCCCNCC(=O)O

Legend:
[1] = tested on: Methicillin-resistant S. aureus USA 300; assay type: cell-based, Staphylococcus aureus; details: Table 2; MRSA USA 300
Outline: (§1)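 Broth microdilution per CLSI in MHB II, final inoculum 5 × 10^5 CFU/mL, with twofold peptoid dilutions. Incubation was 18 h at 37 °C in ambient air. MIC was taken as the lowest concentration without visible growth, from two experiments on different days in technical triplicate.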

S. aureus ATCC 25923 = assay type: cell-based, Staphylococcus aureus; details: Table 2; S. aureus ATCC 25923
Outline: as §1

[2] = tested on: Methicillin-resistant S. epidermidis ATCC 51625; assay type: cell-based, Staphylococcus epidermidis; details: Table 2; MRSE ATCC 51625
Outline: as §1

[3] = tested on: Methicillin-resistant S. epidermidis ET-024; assay type: cell-based, Staphylococcus epidermidis; details: Table 2; MRSE ET-024
Outline: as §1

E. coli ATCC 25922 = assay type: cell-based, Escherichia coli; details: Table 2; E. coli ATCC 25922
Outline: as §1

[4] = tested on: P. aeruginosa PA01 (H103); assay type: cell-based, Pseudomonas aeruginosa; details: Table 2; P. aeruginosa PA01 H103
Outline: as §1

HaCaT cell line = assay type: cell-based, human; details: 1 h exposure, MTS/PMS assay; interval in brackets
Procedure: An immortalized human keratinocytes (HaCaT) cell line (Gift from David G. Naym at Bispebjerg Hospital) were cultured to ∼90% confluence after 21–25 h of growth at 5% CO2 and 37 °C as previously. In brief, the cells were cultured in Dulbecco’s Modified Eagle’s Medium supplemented with 10% (v/v) fetal bovine serum, penicillin (100 IU/mL), and streptomycin (100 μg/mL), purchased from Sigma-Aldrich (St. Louis, MO, United States).
Cell viability assessment was performed on cell monolayers grown to ∼90% confluence in 96-well plates Corning Costar (Sigma-Aldrich, Brøndby, Denmark) by using the MTS/PMS assay as previously described. Briefly, the adhered cells were washed with 37 °C PBS solution (ThermoFisher Scientific, Roskilde) and exposed for 1 h at 37 °C to 100 μL of peptoids dissolved in the medium also used for culturing of the cell line (at concentrations in the range 0–1,000 μg/mL). The precise exposure-time were selected to enable comparison with related peptoid compounds[21],[35]. […] A plate reader (SpectraMax i3X; Molecular devices, San Jose, CA) was used to measure the absorbance at 492 nm. The relative viability was calculated by using 0.2% (w/v) sodium dodecyl sulfate (SDS) as the positive control, while cells exposed to medium without test compound were used as the negative control. […]

C[C@@H](c1ccccc1)N(CC(N)=O)C(=O)CN(C(=O)CN(CCCCN)C(=O)CN(C(=O)CN(C(=O)CN(CCCCN)C(=O)CN(C(=O)CN(C(=O)CN(CCCCN)C(=O)CN(C(=O)CN(C(=O)CNCCCCN)[C@@H](C)c1ccccc1)[C@@H](C)c1ccccc1)[C@@H](C)c1ccccc1)[C@@H](C)c1ccccc1)[C@@H](C)c1ccccc1)[C@@H](C)c1ccccc1)[C@@H](C)c1ccccc1 [Peptoid 1, reference compound] (H-[Nlys][Nspe][Nspe][Nlys][Nspe][Nspe][Nlys][Nspe][Nspe][Nlys][Nspe][Nspe]-NH2)
MIC MRSA^b [1]: 8 µg/mL (≈ 4.4 µM)
MIC SA^a (S. aureus ATCC 25923): 8 µg/mL (≈ 4.4 µM)
MIC MRSE^d [2]: 8 µg/mL (≈ 4.4 µM)
MIC MRSE^c [3]: 4 µg/mL (≈ 2.2 µM)
MIC EC^e (E. coli ATCC 25922): 8 µg/mL (≈ 4.4 µM)
MIC PA^f [4]: 16 µg/mL (≈ 8.79 µM)
IC50 towards HaCaT cell line (HaCaT cell line): 35.0 (30.9 to 39.9) μg/mL
